{"source": "ChEMBL document CHEMBL3217526", "about": "“Bioguided discovery and pharmacophore modeling of the mycotoxic indole diterpene alkaloids penitrems as breast cancer proliferation, migration, and invasion inhibitors” (Medchemcomm, 2013)", "key": {"A549": {"tested_on": "A549", "test": "Cytotoxicity against human A549 cells assessed as growth inhibition at 10 uM", "assay_type": "functional", "conditions": "read-out: GI"}, "NCI-H522": {"tested_on": "NCI-H522", "test": "Cytotoxicity against human NCI-H522 cells assessed as growth inhibition at 10 uM", "assay_type": "functional", "conditions": "read-out: GI"}, "RPMI-8226": {"tested_on": "RPMI-8226", "test": "Cytotoxicity against human RPMI8226 cells assessed as growth inhibition at 10 uM", "assay_type": "functional", "conditions": "read-out: GI"}, "MDA-MB-231 [1]": {"tested_on": "MDA-MB-231", "test": "Cytotoxicity against human MDA-MB-231 cells assessed as growth inhibition at 10 uM", "assay_type": "functional", "conditions": "read-out: GI"}, "T47D": {"tested_on": "T47D", "test": "Cytotoxicity against human T47D cells assessed as growth inhibition at 10 uM", "assay_type": "functional", "conditions": "read-out: GI"}, "HCT-116": {"tested_on": "HCT-116", "test": "Cytotoxicity against human HCT116 cells assessed as growth inhibition at 10 uM", "assay_type": "functional", "conditions": "read-out: GI"}, "MCF7": {"tested_on": "MCF7", "test": "Cytotoxicity against human MCF7 cells assessed as growth inhibition at 10 uM", "assay_type": "functional", "conditions": "read-out: GI"}, "MDA-MB-231 [2]": {"tested_on": "MDA-MB-231", "test": "Antimigratory activity in human MDA-MB-231 cells after 24 hrs by wound healing assay", "assay_type": "functional, cell-based", "conditions": "MDA-MB-231, 24 h"}, "HOP-62": {"tested_on": "HOP-62", "test": "Cytotoxicity against human HOP62 cells assessed as growth inhibition at 10 uM", "assay_type": "functional", "conditions": "read-out: GI"}, "M14": {"tested_on": "M14", "test": "Cytotoxicity against human M14 cells assessed as growth inhibition at 10 uM", "assay_type": "functional", "conditions": "read-out: GI"}, "SK-MEL-28": {"tested_on": "SK-MEL-28", "test": "Cytotoxicity against human SK-MEL-28 cells assessed as growth inhibition at 10 uM", "assay_type": "functional", "conditions": "read-out: GI"}, "[3]": {"test": "Cytotoxicity against human UACC62 cells assessed as growth inhibition at 10 uM", "assay_type": "functional", "conditions": "UACC-62, read-out: GI"}, "[4]": {"test": "Cytotoxicity against human Hs578T cells assessed as growth inhibition at 10 uM", "assay_type": "functional", "conditions": "Hs-578T, read-out: GI"}, "[5]": {"test": "Cytotoxicity against human OVCAR4 cells assessed as growth inhibition at 10 uM", "assay_type": "functional", "conditions": "OVCAR-4, read-out: GI"}, "[6]": {"test": "Cytotoxicity against human OVCAR5 cells assessed as growth inhibition at 10 uM", "assay_type": "functional", "conditions": "OVCAR-5, read-out: GI"}, "[7]": {"test": "Cytotoxicity against human EKVX cells assessed as growth inhibition at 10 uM", "assay_type": "functional", "conditions": "read-out: GI"}, "MDA-MB-435": {"tested_on": "MDA-MB-435", "test": "Cytotoxicity against human MDA-MB-435 cells assessed as growth inhibition at 10 uM", "assay_type": "functional", "conditions": "read-out: GI"}, "[8]": {"test": "Cytotoxicity against human OVCAR8 cells assessed as growth inhibition at 10 uM", "assay_type": "functional", "conditions": "OVCAR-8, read-out: GI"}, "[9]": {"test": "Cytotoxicity against human UO31 cells assessed as growth inhibition at 10 uM", "assay_type": "functional", "conditions": "UO-31, read-out: GI"}, "DU-145": {"tested_on": "DU-145", "test": "Cytotoxicity against human DU145 cells assessed as growth inhibition at 10 uM", "assay_type": "functional", "conditions": "read-out: GI"}, "[10]": {"test": "Cytotoxicity against human UACC257 cells assessed as growth inhibition at 10 uM", "assay_type": "functional", "conditions": "UACC-257, read-out: GI"}, "[11]": {"test": "Cytotoxicity against human OVCAR3 cells assessed as growth inhibition at 10 uM", "assay_type": "functional", "conditions": "OVCAR-3, read-out: GI"}, "SNB-19": {"tested_on": "SNB-19", "test": "Cytotoxicity against human SNB19 cells assessed as growth inhibition at 10 uM", "assay_type": "functional", "conditions": "read-out: GI"}, "HCC 2998": {"tested_on": "HCC 2998", "test": "Cytotoxicity against human HCC2998 cells assessed as growth inhibition at 10 uM", "assay_type": "functional", "conditions": "read-out: GI"}, "K562": {"tested_on": "K562", "test": "Cytotoxicity against human K562 cells assessed as growth inhibition at 10 uM", "assay_type": "functional", "conditions": "read-out: GI"}, "KM12": {"tested_on": "KM12", "test": "Cytotoxicity against human KM12 cells assessed as growth inhibition at 10 uM", "assay_type": "functional", "conditions": "read-out: GI"}, "SR": {"tested_on": "SR", "test": "Cytotoxicity against human SR cells assessed as growth inhibition at 10 uM", "assay_type": "functional", "conditions": "read-out: GI"}, "SK-MEL-2": {"tested_on": "SK-MEL-2", "test": "Cytotoxicity against human SK-MEL-2 cells assessed as growth inhibition at 10 uM", "assay_type": "functional", "conditions": "read-out: GI"}, "SK-OV-3": {"tested_on": "SK-OV-3", "test": "Cytotoxicity against human SKOV3 cells assessed as growth inhibition at 10 uM", "assay_type": "functional", "conditions": "read-out: GI"}, "COLO 205": {"tested_on": "COLO 205", "test": "Cytotoxicity against human COLO205 cells assessed as growth inhibition at 10 uM", "assay_type": "functional", "conditions": "read-out: GI"}, "SF-268": {"tested_on": "SF-268", "test": "Cytotoxicity against human SF268 cells assessed as growth inhibition at 10 uM", "assay_type": "functional", "conditions": "read-out: GI"}}}
{"molecule": "C=C(C)[C@H]1O[C@H]2CC[C@@]3(C)[C@@](O)(CC[C@H]4[C@@H]5OC(C)(C)[C@H]6C[C@@H]7C(=C)Cc8ccc9[nH]c(c5c9c8[C@@]76O)[C@@]43C)[C@]23O[C@@H]3[C@H]1O", "values": [{"measurement": "inhibition of growth at 10 µM", "setting": "A549", "result": 92.6, "unit": "%"}, {"measurement": "inhibition of growth at 10 µM", "setting": "NCI-H522", "result": 86, "unit": "%"}, {"measurement": "inhibition of growth at 10 µM", "setting": "RPMI-8226", "result": 72.5, "unit": "%"}, {"measurement": "inhibition of growth at 10 µM", "setting": "MDA-MB-231 [1]", "result": 101, "unit": "%"}, {"measurement": "inhibition of growth at 10 µM", "setting": "T47D", "result": 94.8, "unit": "%"}, {"measurement": "inhibition of growth at 10 µM", "setting": "HCT-116", "result": 92.4, "unit": "%"}, {"measurement": "inhibition of growth at 10 µM", "setting": "MCF7", "result": 100, "unit": "%"}, {"measurement": "IC50", "setting": "MDA-MB-231 [2]", "result": 20.3, "unit": "µM"}, {"measurement": "inhibition of growth at 10 µM", "setting": "HOP-62", "result": 99.2, "unit": "%"}, {"measurement": "inhibition of growth at 10 µM", "setting": "M14", "result": 100, "unit": "%"}, {"measurement": "inhibition of growth at 10 µM", "setting": "SK-MEL-28", "result": 110, "unit": "%"}, {"measurement": "inhibition of growth at 10 µM", "setting": "[3]", "result": 101, "unit": "%"}, {"measurement": "inhibition of growth at 10 µM", "setting": "[4]", "result": 92.2, "unit": "%"}, {"measurement": "inhibition of growth at 10 µM", "setting": "[5]", "result": 109, "unit": "%"}, {"measurement": "inhibition of growth at 10 µM", "setting": "[6]", "result": 115, "unit": "%"}, {"measurement": "inhibition of growth at 10 µM", "setting": "[7]", "result": 104, "unit": "%"}, {"measurement": "inhibition of growth at 10 µM", "setting": "MDA-MB-435", "result": 106, "unit": "%"}, {"measurement": "inhibition of growth at 10 µM", "setting": "[8]", "result": 96.9, "unit": "%"}, {"measurement": "inhibition of growth at 10 µM", "setting": "[9]", "result": 72.5, "unit": "%"}, {"measurement": "inhibition of growth at 10 µM", "setting": "DU-145", "result": 100, "unit": "%"}, {"measurement": "inhibition of growth at 10 µM", "setting": "[10]", "result": 97.1, "unit": "%"}, {"measurement": "inhibition of growth at 10 µM", "setting": "[11]", "result": 111, "unit": "%"}, {"measurement": "inhibition of growth at 10 µM", "setting": "SNB-19", "result": 101, "unit": "%"}, {"measurement": "inhibition of growth at 10 µM", "setting": "HCC 2998", "result": 104, "unit": "%"}, {"measurement": "inhibition of growth at 10 µM", "setting": "K562", "result": 76.9, "unit": "%"}, {"measurement": "inhibition of growth at 10 µM", "setting": "KM12", "result": 110, "unit": "%"}, {"measurement": "inhibition of growth at 10 µM", "setting": "SR", "result": 91.9, "unit": "%"}, {"measurement": "inhibition of growth at 10 µM", "setting": "SK-MEL-2", "result": 96.4, "unit": "%"}, {"measurement": "inhibition of growth at 10 µM", "setting": "SK-OV-3", "result": 103, "unit": "%"}, {"measurement": "inhibition of growth at 10 µM", "setting": "COLO 205", "result": 106, "unit": "%"}, {"measurement": "inhibition of growth at 10 µM", "setting": "SF-268", "result": 88.9, "unit": "%"}]}
